Where “and” joins values, the source holds several entries; their conditions need not be identical. Identical values can stand only once.
Target: T1, JAK3: Recombinant human kinase domain (Homo sapiens, UniProt P52333)
T1 construct: JAK3: Recombinant human kinase domain from Millipore (Cat #14-629) or prepared; purchased Millipore 14-629
Assay: Determination of IC50 of Janus Kinase (JAK) inhibition, radioactive end-point 33P-ATP assay, JAK3
Assay type: biochemical
Details: ATP 1.5 uM, peptide 50 uM, 20 minutes, read-out: JAK3-INHIB-DR/v1~NO ADDITIVE~Enzyme_Conc = 100

T1 sequence (P52333 822-1111 limits assumed): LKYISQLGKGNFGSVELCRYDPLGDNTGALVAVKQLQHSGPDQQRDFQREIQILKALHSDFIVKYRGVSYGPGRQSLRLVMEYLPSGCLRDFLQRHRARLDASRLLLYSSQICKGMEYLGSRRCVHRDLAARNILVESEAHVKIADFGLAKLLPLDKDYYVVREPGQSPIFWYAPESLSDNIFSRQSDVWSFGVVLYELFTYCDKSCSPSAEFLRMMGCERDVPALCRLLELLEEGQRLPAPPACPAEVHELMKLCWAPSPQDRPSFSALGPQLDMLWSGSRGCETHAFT

IC50 | SMILES
1.23 nM | C[C@@H](NC(=O)c1c[nH]c2ncc(-c3nn(C)c4cc(Cl)c(Cl)cc34)nc12)C(=O)N1CC(C#N)C1 [Example I-6, 2-(5,6-Dichloro-1-methyl-1H-indazol-3-yl)-5H-pyrrolo[2,3-b]pyrazine-7-carboxylic acid [(R)-2-(3-cyano-azetidin-1-yl)-1-methyl-2-oxo-ethyl]-amide]
3.89 nM | CC[C@@H](C)NC(=O)c1c[nH]c2ncc(-c3nn(C)c4cc(F)ccc34)nc12 [Example I-180, 2-(6-Fluoro-1-methyl-1H-indazol-3-yl)-5H-pyrrolo[2,3-b]pyrazine-7-carboxylic acid ((R)-sec-butyl)-amide]
285 nM | C[C@H](CC(=O)N1CCCC1)NC(=O)c1c[nH]c2ncc(-c3nn(C)c4cc(Cl)ccc34)nc12 [Example I-72, 2-(6-Chloro-1-methyl-1H-indazol-3-yl)-5H-pyrrolo[2,3-b]pyrazine-7-carboxylic acid ((R)-1-methyl-3-oxo-3-pyrrolidin-1-yl-propyl)-amide]
165 nM | C[C@@H](O)[C@@H](CO)NC(=O)c1c[nH]c2ncc(-c3nn(C)c4cc(F)ccc34)nc12 [Example I-176, 2-(6-Fluoro-1-methyl-1H-indazol-3-yl)-5H-pyrrolo[2,3-b]pyrazine-7-carboxylic acid ((1R,2R)-2-hydroxy-1-hydroxymethyl-propyl)-amide]
54.5 nM | C[C@H](CO)NC(=O)c1c[nH]c2ncc(-c3nn(C)c4cc(Cl)ccc34)nc12 [Example I-200, 2-(6-Chloro-1-methyl-1H-indazol-3-yl)-5H-pyrrolo[2,3-b]pyrazine-7-carboxylic acid ((R)-2-hydroxy-1-methyl-ethyl)-amide]
1.25 nM | C[C@@H](NC(=O)c1c[nH]c2ncc(-c3nc(S(C)(=O)=O)n4cc(F)ccc34)nc12)C(=O)N1CC(C#N)C1 [Example I-42, 2-(6-Fluoro-3-methanesulfonyl-imidazo[1,5-a]pyridin-1-yl)-5H-pyrrolo[2,3-b]pyrazine-7-carboxylic acid [(R)-2-(3-cyano-azetidin-1-yl)-1-methyl-2-oxo-ethyl]-amide]
1.45 nM | C[C@@H](NC(=O)c1c[nH]c2ncc(-c3nn(C)c4cc(Cl)c(F)cc34)nc12)C(=O)N1CC(C#N)C1 [Example I-30, 2-(6-Chloro-5-fluoro-1-methyl-1H-indazol-3-yl)-5H-pyrrolo[2,3-b]pyrazine-7-carboxylic acid [(R)-2-(3-cyano-azetidin-1-yl)-1-methyl-2-oxo-ethyl]-amide]
0.775 nM | C[C@@H](NC(=O)c1c[nH]c2ncc(-c3nn(CC#N)c4cc(Cl)ccc34)nc12)C(=O)N1CC(C#N)C1 [Example I-93, 2-(6-Chloro-1-cyanomethyl-1H-indazol-3-yl)-5H-pyrrolo[2,3-b]pyrazine-7-carboxylic acid [(R)-2-(3-cyano-azetidin-1-yl)-1-methyl-2-oxo-ethyl]-amide]
0.85 nM | C[C@@H](NC(=O)c1c[nH]c2ncc(-c3nn(C)c4ccsc34)nc12)C(=O)N1CC(C#N)C1 [Example I-99, 2-(1-Methyl-1H-thieno[3,2-c]pyrazol-3-yl)-5H-pyrrolo[2,3-b]pyrazine-7-carboxylic acid [(R)-2-(3-cyano-azetidin-1-yl)-1-methyl-2-oxo-ethyl]-amide]
> 1000 nM and 830 nM | Cn1nc(-c2cnc3[nH]cc(C(=O)NC4(c5cccc(Br)c5)CCC4)c3n2)c2ccc(F)cc21 [Example I-209, 2-(6-Fluoro-1-methyl-1H-indazol-3-yl)-5H-pyrrolo[2,3-b]pyrazine-7-carboxylic acid [1-(3-bromo-phenyl)-cyclobutyl]-amide]
2.08 nM | CCCn1nc(-c2cnc3[nH]cc(C(=O)N[C@H](C)C(=O)N4CC(C#N)C4)c3n2)c2ccc(Cl)cc21 [Example I-92, 2-(6-Chloro-1-propyl-1H-indazol-3-yl)-5H-pyrrolo[2,3-b]pyrazine-7-carboxylic acid [(R)-2-(3-cyano-azetidin-1-yl)-1-methyl-2-oxo-ethyl]-amide]
71.2 nM | Cn1nc(-c2cnc3[nH]cc(C(=O)NC(C)(C)C)c3n2)c2cc(OC(F)F)ccc21 [Example I-284, 2-(5-Difluoromethoxy-1-methyl-1H-indazol-3-yl)-5H-pyrrolo[2,3-b]pyrazine-7-carboxylic acid tert-butylamide]
27.3 nM | C[C@@H](NC(=O)c1c[nH]c2ncc(-c3nn(C)c4cc(F)ccc34)nc12)c1cccc(Br)c1 [Example I-215, 2-(6-Fluoro-1-methyl-1H-indazol-3-yl)-5H-pyrrolo[2,3-b]pyrazine-7-carboxylic acid [(R)-1-(3-bromo-phenyl)-ethyl]-amide]
44.3 nM | CCNC(=O)c1c[nH]c2ncc(-c3nn(C)c4cc(Cl)ccc34)nc12 [Example I-109, 2-(6-Chloro-1-methyl-1H-indazol-3-yl)-5H-pyrrolo[2,3-b]pyrazine-7-carboxylic acid ethylamide]
4.81 nM | C[C@@H](NC(=O)c1c[nH]c2ncc(-c3nn(C)c4cc(Cl)ccc34)nc12)C1CC1 [Example I-16, 2-(6-Chloro-1-methyl-1H-indazol-3-yl)-5H-pyrrolo[2,3-b]pyrazine-7-carboxylic acid ((R)-1-cyclopropyl-ethyl)-amide]
4.02 nM | CC1CCCCC1NC(=O)c1c[nH]c2ncc(-c3nn(C)c4cc(Cl)ccc34)nc12 (centres unmarked) [Example I-153, 2-(6-Chloro-1-methyl-1H-indazol-3-yl)-5H-pyrrolo[2,3-b]pyrazine-7-carboxylic acid (2-methyl-cyclohexyl)-amide]
1.36 nM | Cc1ccc2c(-c3cnc4[nH]cc(C(=O)N[C@H](C)C(=O)N5CC(C#N)C5)c4n3)nn(C)c2c1 [Example I-82]
19.2 nM | C[C@@H](NC(=O)c1c[nH]c2ncc(-c3nn(C)c4cc(Cl)ccc34)nc12)C(C)(C)O [Example I-12, 2-(6-Chloro-1-methyl-1H-indazol-3-yl)-5H-pyrrolo[2,3-b]pyrazine-7-carboxylic acid ((R)-2-hydroxy-1,2-dimethyl-propyl)-amide]
5.39 nM | C[C@@H](NC(=O)c1c[nH]c2ncc(-c3nn(CCCO)c4cc(Cl)ccc34)nc12)C(=O)N1CC(C#N)C1 [Example I-96, 2-[6-Chloro-1-(3-hydroxy-propyl)-1H-indazol-3-yl]-5H-pyrrolo[2,3-b]pyrazine-7-carboxylic acid [(R)-2-(3-cyano-azetidin-1-yl)-1-methyl-2-oxo-ethyl]-amide]
2.17 nM | C[C@@H](NC(=O)c1c[nH]c2ncc(-c3cnc4ccccn34)nc12)C(=O)N1CC(C#N)C1 [Example I-220, 2-Imidazo[1,2-a]pyridin-3-yl-5H-pyrrolo[2,3-b]pyrazine-7-carboxylic acid [(R)-2-(3-cyano-azetidin-1-yl)-1-methyl-2-oxo-ethyl]-amide]
3.04 nM | C[C@@H](COCC#N)NC(=O)c1c[nH]c2ncc(-c3nn(C)c4cc(F)ccc34)nc12 [Example I-219, 2-(6-Fluoro-1-methyl-1H-indazol-3-yl)-5H-pyrrolo[2,3-b]pyrazine-7-carboxylic acid ((S)-2-cyanomethoxy-1-methyl-ethyl)-amide]
7.07 nM | CC(NC(=O)c1c[nH]c2ncc(-c3nn(C)c4cc(F)ccc34)nc12)c1ccon1 (centres unmarked) [Example I-53, 2-(6-Fluoro-1-methyl-1H-indazol-3-yl)-5H-pyrrolo[2,3-b]pyrazine-7-carboxylic acid (1-isoxazol-3-yl-ethyl)-amide]
102 nM | Cn1nc(-c2cnc3[nH]cc(C(=O)NC4(c5ccc(Br)cc5)CCC4)c3n2)c2ccc(F)cc21 [Example I-210, 2-(6-Fluoro-1-methyl-1H-indazol-3-yl)-5H-pyrrolo[2,3-b]pyrazine-7-carboxylic acid [1-(4-bromo-phenyl)-cyclobutyl]-amide]
6.67 nM | C[C@@H](NC(=O)c1c[nH]c2ncc(-c3nn(C)c4cc(F)ccc34)nc12)[C@@H]1CCCO1 [Example I-63, 2-(6-Fluoro-1-methyl-1H-indazol-3-yl)-5H-pyrrolo[2,3-b]pyrazine-7-carboxylic acid [(R)-(S)-1-(tetrahydro-furan-2-yl)-ethyl]-amide]
20.5 nM | C[C@@H](NC(=O)c1c[nH]c2ncc(-c3nn(C)c4cc(Cl)ccc34)nc12)C(=O)N1CC2(COC2)C1 [Example I-27, 2-(6-Chloro-1-methyl-1H-indazol-3-yl)-5H-pyrrolo[2,3-b]pyrazine-7-carboxylic acid [(R)-1-methyl-2-(2-oxa-6-aza-spiro[3.3]hept-6-yl)-2-oxo-ethyl]-amide]
9.35 nM | CC(NC(=O)c1c[nH]c2ncc(-c3nn(C)c4cc(F)ccc34)nc12)[C@H]1C[C@H](C#N)C1 (stereo partly drawn) [Example I-74, 2-(6-Fluoro-1-methyl-1H-indazol-3-yl)-5H-pyrrolo[2,3-b]pyrazine-7-carboxylic acid [1-(trans-3-cyano-cyclobutyl)-ethyl]-amide]
9.9 nM | COC[C@H](C)NC(=O)c1c[nH]c2ncc(-c3cnc4cc(C#N)ccn34)nc12 [Example I-222, 2-(7-Cyano-imidazo[1,2-a]pyridin-3-yl)-5H-pyrrolo[2,3-b]pyrazine-7-carboxylic acid ((S)-2-methoxy-1-methyl-ethyl)-amide]
3.56 nM | C[C@@H](NC(=O)c1c[nH]c2ncc(-c3nn(CCc4ccccn4)c4cc(Cl)ccc34)nc12)C(=O)N1CC(C#N)C1 [Example I-232, 2-[6-Chloro-1-(2-pyridin-2-yl-ethyl)-1H-indazol-3-yl]-5H-pyrrolo[2,3-b]pyrazine-7-carboxylic acid [(R)-2-(3-cyano-azetidin-1-yl)-1-methyl-2-oxo-ethyl)-amide]
12.6 nM | C[C@@H](NC(=O)c1c[nH]c2ncc(-c3nn(CC(O)CO)c4cc(Cl)ccc34)nc12)C(=O)N1CC(C#N)C1 (stereo partly drawn) [Example I-94, 2-[6-Chloro-1-(2,3-dihydroxy-propyl)-1H-indazol-3-yl]-5H-pyrrolo[2,3-b]pyrazine-7-carboxylic acid [(R)-2-(3-cyano-azetidin-1-yl)-1-methyl-2-oxo-ethyl)-amide]
